The values that follow come from article PMC8732328 (Nature microbiology, 2021).

The subject of this assay is all eight Enterococcus or Streptococcus strains. Nature of the assay: MIC against eight Enterococcus or Streptococcus strains. It counts as cell-based, Enterococcus and Streptococcus spp.
In the case of `CN[C@H](CC(C)C)C(=O)N[C@H]1C(=O)N[C@@H](CC(N)=O)C(=O)N[C@H]2C(=O)N[C@H]3C(=O)N[C@H](C(=O)N[C@H](C(=O)O)c4cc(O)cc(O)c4-c4cc3ccc4O)[C@H](O)c3ccc(c(Cl)c3)Oc3cc2cc(c3O[C@@H]2O[C@H](CO)[C@@H](O)[C@H](O)[C@H]2O[C@H]2C[C@](C)(N)[C@H](O)[C@H](C)O2)Oc2ccc(cc2Cl)[C@H]1O` [Van, vancomycin], the “activity against all eight Enterococcus or Streptococcus strains” value (shortened to “activity”) is “active”.

Regarding lysobactin, the “activity” value is recorded as “active”.

On to nisin, for which the “activity” value was “active”.

Take ramoplanin: the “activity” value is on record as “active”.
